Experiments:
Assay in all cases: drug sensitivity score (DSS) (DSS (unitless, 0-50 scale)); higher = more sensitive (stronger viability inhibition); extreme values may be limits of the assay
Conditions in all cases: 72 h; culture: 2D
WM852 = system: WM852
How it was run: (§1)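 Patient-derived melanoma cultures (1000–1500 cells per well) and melanoma cell lines were grown in 2D in 384-well plates holding a 527-compound oncology library. Each compound was dissolved in DMSO or water and tested at five concentrations spanning a 10,000-fold range. After 72 h at 37 °C, viability was read by CellTiter-Glo luminescence. A drug sensitivity score, a modified area-under-curve measure, was derived from dose-response curves fitted in the in-house Breeze software.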

SK-MEL-28 = system: SK-MEL-28
How it was run: as §1

WM165 = system: WM165
How it was run: as §1

FM-MEL-6 = system: FM-MEL-6
How it was run: as §1

FM-MEL-2 = system: FM-MEL-2
How it was run: as §1

FM-MEL-3 = system: FM-MEL-3
How it was run: as §1

Bowes = system: Bowes
How it was run: as §1

SK-MEL-2 = system: SK-MEL-2
How it was run: as §1

SMILES | drug sensitivity score (WM852) | drug sensitivity score (SK-MEL-28) | drug sensitivity score (WM165) | drug sensitivity score (FM-MEL-6) | drug sensitivity score (FM-MEL-2) | drug sensitivity score (FM-MEL-3) | drug sensitivity score (Bowes) | drug sensitivity score (SK-MEL-2)
Cn1cc(C2=C(c3cn(C4CCN(Cc5ccccn5)CC4)c4ccccc34)C(=O)NC2=O)c2ccccc21 [Enzastaurin] | 2.1 | 0 | 0 | 0 | 1.7 | 3.7 | 0 | 0.2
NS(=O)(=O)NCCNc1nonc1/C(=N/O)Nc1ccc(F)c(Br)c1 [Epacadostat] | 0.7 | 0 | 0 | 0.5 | 0.5 | 1 | 0 | 0
COc1cccc2c1C(=O)c1c(O)c3c(c(O)c1C2=O)C[C@@](O)(C(=O)CO)C[C@@H]3O[C@H]1C[C@H](N)[C@@H](O)[C@H](C)O1 [Epirubicin] | 4.6 | 7.4 | 14.3 | 8.6 | 6 | 7.6 | 4 | 5.3
CCOc1ccccc1-n1c(C(C)N2CCN(C(=O)COc3ccc(Cl)cc3)CC2)nc2ccccc2c1=O (stereo not drawn) [Erastin] | 12 | 0 | 10.8 | 0 | 7.6 | 5.8 | 6.2 | 1.3
COc1cc(OC)cc(N(CCNC(C)C)c2ccc3ncc(-c4cnn(C)c4)nc3c2)c1 [Erdafitinib] | 0.8 | 0 | 0 | 0 | 0 | 0 | 2.4 | 0
C=C1C[C@@H]2CC[C@@]34C[C@H]5O[C@H]6[C@@H](O3)[C@H]3O[C@H](CC[C@@H]3O[C@H]6[C@H]5O4)CC(=O)C[C@@H]3[C@@H](OC)[C@@H](C[C@H](O)CN)O[C@H]3C[C@H]3O[C@@H](CC[C@@H]1O2)C[C@@H](C)C3=C [Eribulin] | 22.8 | 11.2 | 22.5 | 18.5 | 4.8 | 9.4 | 23.6 | 20.4
C#Cc1cccc(Nc2ncnc3cc(OCCOC)c(OCCOC)cc23)c1 [Erlotinib] | 2.5 | 1.1 | 3.9 | 1.9 | 4.4 | 3.5 | 1.8 | 0
COc1cc([C@@H]2c3cc4c(cc3[C@@H](O[C@@H]3O[C@@H]5CO[C@@H](C)O[C@H]5[C@H](O)[C@H]3O)[C@H]3COC(=O)[C@H]23)OCO4)cc(OC)c1O [Etoposide] | 0.4 | 5.9 | 19.1 | 5.7 | 2.9 | 4 | 2.7 | 2.6
CO[C@H]1C[C@@H]2CC[C@@H](C)[C@@](O)(O2)C(=O)C(=O)N2CCCC[C@H]2C(=O)O[C@H]([C@H](C)C[C@@H]2CC[C@@H](OCCO)[C@H](OC)C2)CC(=O)[C@H](C)/C=C(\C)[C@@H](O)[C@@H](OC)C(=O)[C@H](C)C[C@H](C)/C=C/C=C/C=C/1C [Everolimus] | 0 | 3 | 4.9 | 3.6 | 2.2 | 4.7 | 0 | 0
C=C1C[C@@H]2[C@H](CC[C@]3(C)C(=O)CC[C@@H]23)[C@@]2(C)C=CC(=O)C=C12 [Exemestane] | 0.3 | 0 | 0.2 | 0 | 0 | 0 | 1.4 | 0
CCn1c(=O)c(-c2ccc(Cl)cc2Cl)cc2cnc(Nc3ccc(N4CCNCC4)c(F)c3)nc21 [FRAX486] | 1.4 | 3.2 | 7.6 | 1.9 | 0 | 0 | 9.7 | 0.5
Cc1cnc(Nc2ccc(OCCN3CCCC3)cc2)nc1Nc1cccc(S(=O)(=O)NC(C)(C)C)c1 [Fedratinib] | 6.8 | 3 | 9.1 | 3.1 | 3.6 | 6.7 | 10.9 | 4.5
CON(C)C(=O)N1N=C(c2cc(F)ccc2F)S[C@@]1(CCCN)c1ccccc1 [Filanesib] | 23.3 | 4.5 | 17.4 | 11.3 | 4.7 | 10 | 12.5 | 16.5
O=C(Nc1nc2cccc(-c3ccc(CN4CCS(=O)(=O)CC4)cc3)n2n1)C1CC1 [Filgotinib] | 5.9 | 0 | 0.7 | 4.5 | 0 | 0 | 4.5 | 0
CC(C)(C)NC(=O)[C@H]1CC[C@H]2[C@@H]3CC[C@H]4NC(=O)C=C[C@]4(C)[C@H]3CC[C@]12C [Finasteride] | 0 | 0 | 0 | 0 | 0 | 0 | 0 | 0
CCCCCCCCc1ccc(CCC(N)(CO)CO)cc1 [Fingolimod] | 7 | 6.2 | 6.3 | 6.4 | 6.2 | 7.5 | 8.5 | 5.7
O=c1[nH]c(=O)n([C@H]2C[C@H](O)[C@@H](CO)O2)cc1F [Floxuridine] | 4.9 | 8 | 18.4 | 1.2 | 0.4 | 0 | 15.7 | 0
Nc1nc(F)nc2c1ncn2[C@@H]1O[C@H](CO)[C@@H](O)[C@@H]1O [Fludarabine] | 0 | 1.1 | 0 | 3.1 | 1.4 | 0.6 | 0 | 4.7
O=c1[nH]cc(F)c(=O)[nH]1 [Fluorouracil] | 0 | 0.7 | 2.3 | 0.7 | 1.7 | 0.4 | 0 | 0
CC(C)C(=O)Nc1ccc([N+](=O)[O-])c(C(F)(F)F)c1 [Flutamide] | 0.5 | 0 | 0 | 0 | 0 | 0.5 | 0.1 | 0
COc1cc2c(Oc3ccc(NC(=O)C4(C(=O)Nc5ccc(F)cc5)CC4)cc3F)ccnc2cc1OCCCN1CCOCC1 [Foretinib] | 2.2 | 2.6 | 2.6 | 0.9 | 3.1 | 3.2 | 5.1 | 0

SMILES | drug sensitivity score (WM852) | drug sensitivity score (SK-MEL-28) | drug sensitivity score (WM165) | drug sensitivity score (FM-MEL-6) | drug sensitivity score (FM-MEL-2) | drug sensitivity score (FM-MEL-3) | drug sensitivity score (Bowes) | drug sensitivity score (SK-MEL-2)
COc1cc(Nc2ncc(F)c(Nc3ccc4c(n3)N(COP(=O)(O)O)C(=O)C(C)(C)O4)n2)cc(OC)c1OC [Fostamatinib] | 0.5 | 2 | 3.5 | 1.9 | 4.6 | 2.1 | 2 | 0
C[C@]12CC[C@@H]3c4ccc(O)cc4C[C@@H](CCCCCCCCC[S+]([O-])CCCC(F)(F)C(F)(F)F)[C@H]3[C@@H]1CC[C@@H]2O (stereo partly drawn) [Fulvestrant] | 0 | 0 | 0 | 0 | 0 | 0 | 0 | 0
CC1(C)OCCn2c1nc1c(N3CCOCC3)nc(-c3cnc(N)nc3)nc12 [GDC-0084] | 7.7 | 7.7 | 8.4 | 7.8 | 9.6 | 8.4 | 9.4 | 8.1
O=C(NOCCO)c1ccc2cncn2c1Nc1ccc(I)cc1F [GDC-0623] | 2.4 | 8.9 | 7.6 | 6.2 | 16.5 | 8.9 | 1.4 | 16.8
C[C@H]1CN(C2COC2)CCN1c1ccc(Nc2cc(-c3ccnc(N4CCn5c(cc6c5CC(C)(C)C6)C4=O)c3CO)cn(C)c2=O)nc1 [GDC-0853] | 0 | 0 | 0 | 0 | 0 | 0 | 0 | 0
O[C@H](C[C@H]1c2c(F)cccc2-c2cncn21)[C@H]1CC[C@H](O)CC1 [GDC-0919] | 1.2 | 0.5 | 0 | 1.1 | 0.4 | 0.7 | 0.3 | 0
CNc1nc(Nc2cn(C(C)(C)C#N)nc2C)ncc1C(F)(F)F [GNE-0877] | 0 | 0 | 0 | 0 | 0 | 0 | 0 | 0
CCNc1nc(Nc2cc(F)c(C(=O)N3CCOCC3)cc2OC)ncc1C(F)(F)F [GNE-7915] | 0 | 0 | 0 | 0 | 0 | 2.6 | 0 | 0
CCCc1cc(C)[nH]c(=O)c1CNC(=O)c1cc(-c2ccnc(N3CCN(C)CC3)c2)cc2c1cnn2C(C)C [GSK343] | 0 | 0 | 0 | 0 | 0.1 | 0.2 | 0 | 0.1
CCCOc1ccn2c(C(C)=O)cc(-c3ccccc3S(C)(=O)=O)c2c1 [GSK2801] | 0 | 0 | 0 | 0 | 0.1 | 0 | 0.7 | 0
CCOC(=O)CCNc1cc(N2CCc3ccccc3CC2)nc(-c2ccccn2)n1 [GSK-J4] | 2.3 | 0 | 3.2 | 1.3 | 1 | 20.9 | 11.2 | 0
C[C@@H]1C=C2C(=O)O[C@@H]3CC[C@H](C1)[C@]23O [Galiellalactone] | 5.1 | 5.8 | 6.9 | 0.7 | 2.9 | 5.2 | 8.4 | 0
Cc1cccc(-c2nn3c(c2-c2ccnc4ccc(C(N)=O)cc24)CCC3)n1 [Galunisertib] | 0 | 0 | 0 | 0 | 0 | 0 | 0 | 0
Cc1cc(Nc2cc(CN3CCOCC3)c3nc(C)c(Cc4ccc(Cl)cc4F)n3n2)n[nH]1 [Gandotinib] | 4 | 3.6 | 5.9 | 2.2 | 3 | 6.9 | 4.8 | 0
CC(C)c1cc(-c2n[nH]c(=O)n2-c2ccc3c(ccn3C)c2)c(O)cc1O [Ganetespib] | 9.9 | 8.5 | 17.1 | 7 | 11.2 | 21 | 15.2 | 12.8
CN(C)C1CCN(C(=O)c2ccc(NC(=O)Nc3ccc(-c4nc(N5CCOCC5)nc(N5CCOCC5)n4)cc3)cc2)CC1 [Gedatolisib] | 7.5 | 9.5 | 14.8 | 9.4 | 6.1 | 9.8 | 12.6 | 10.6
COc1cc2ncnc(Nc3ccc(F)c(Cl)c3)c2cc1OCCCN1CCOCC1 [Gefitinib] | 3 | 2.9 | 4.6 | 2.7 | 2.6 | 2.4 | 2.9 | 0
Nc1ccn([C@@H]2O[C@H](CO)[C@@H](O)C2(F)F)c(=O)n1 [Gemcitabine] | 0 | 13.7 | 18.9 | 10.3 | 4.3 | 8.6 | 0 | 6.3
CCc1nc(C(N)=O)c(Nc2ccc(N3CCC(N4CCN(C)CC4)CC3)c(OC)c2)nc1NC1CCOCC1 [Gilteritinib] | 1.8 | 2.7 | 2.8 | 1.9 | 3.7 | 5 | 0 | 1.7
CCN(CC)Cc1ccc2cc(COC(=O)Nc3ccc(C(=O)NO)cc3)ccc2c1 [Givinostat] | 2.2 | 4.9 | 6.6 | 5.8 | 4.3 | 5.2 | 2 | 5.6
